In patent US20140377390A1, “Cosmetic Compositions Comprising Plant Extracts for Combating Skin Aging” (CASTER, priority 2013, published 2014):
[ ]: non-standard residue; d: D form. Cit = NC(=O)NCCC[C@H](N)C(=O)O

Key:
[1] = system: MDR (Multidrug Resistance Proteins) in HDFa cells; assay: MDR activity test (calcein retention, Vybrant MDR Resistance Assay Kit); details: 24 hours, control = 100%
Description: In normal cells, non-fluorescent calcein enters the cell and accumulates therein. It is hydrolysed therein by endogenous esterases, and becomes fluorescent. In cells in which MDR expression is increased, the presence of these protein transporters makes it possible to expel the calcein out of the cell before it is cleaved: there is no fluorescence.
To do this, the Molecular Probes Vybrant MDR Resistance Assay Kit (V13180 Invitrogen Life Science) is used.
These cells are then in passage 4. The cells are left to stand for 48 h for adhesion in an incubator at 37° C. and 5% CO2. […] This stock solution at 10 mg/ml is then diluted in PBS until the working concentration is obtained; • 5 wells with FGF (Sigma) at 5 nM final concentration in the well (positive control) or KGF (Sigma) at 25 ng/ml.
The cells comprising active agents are incubated at 37° C., 5% CO2 for 24 hours.
On D3, a labelling solution is prepared by diluting the calcein solution of the kit at 1 mM (component A of the Invitrogen Life Science kit V13180) in PBS, so as to achieve a concentration of 1 μM (1000× dilution); 50 μl of calcein diluted to 1 μM are provided per well, i.e. 5 ml per 96-well plate. […]
The calcein retention is measured on a Perkin Elmer Enspire® Multimode Reader fluorescence spectrophotometer, by reading the fluorescein fluorescence (λexcitation: 494 nm, λemission: 512 nm). […]

[2] = system: primary human fibroblast cells (HDFa); assay: Evaluation of cytotoxicity, MTT colorimetric test (cell vitality); type: cell-based; details: relative to untreated cells = 100%
Description: This test serves to define the maximum tolerable dose that can be used on the cells without a toxic effect, by means of a rapid and sensitive quantification of the cell proliferation and of the cell viability as a function of the compositions according to the invention.
Briefly, the colorimetric test is based on the activity of a mitochondrial enzyme, succinate dehydrogenase, which degrades the yellow substrate MTT (3-[4,5-dimethylthiazol-2-yl]-2,5-diphenyltetrazolium bromide) into formazan crystals (violet). The amount of formazan salt produced by the cells from the MTT indicates the cell vitality and is measured by spectrophotometry at 570 nm.
In passage 3, the cells were seeded into 96-well plates in a proportion of 2000 cells in a volume of 200 μl of culture medium (Tebu-Bio—Fibroblast Growth Medium—500 ml—Ref 95116500).
On day 7 after seeding of the cells (the medium having been replaced with fresh medium every two days), the culture medium (Tebu-Bio—Fibroblast Growth Medium—500 ml—Ref. 95116500) is removed and 200 μl of the active agent to be tested, diluted in culture medium (no less than 50% of medium), are added and then the cells are reincubated (37° C., 5% CO2).
On the day of the test, 2 ml of fresh MTT solution are prepared by diluting the MTT powder (Thiazolyl Blue Tetrazolium Bromide, Sigma ref. M 5655) to 5 mg/ml in PBS.
20 μl of MTT solution are added to each well. After homogenization, the plate is reincubated (37° C., 5% CO2) for 3 to 4 hours so as to allow metabolization of the MTT.
During this time, the MTT solubilization solution is prepared (DMSO/Isopropanol—1:1). The culture medium is removed by suctioning, and then the plate is dried with absorbent paper. The formazan crystals which have formed are then resuspended with 150 μl of MTT solubilization solution, by agitation at 150 rpm for 15 minutes at ambient temperature.
The optical density is then read at 570 nm on a Perkin Elmer Enspire® Multimode Reader spectrophotometer, with the OD at 670 nm (background noise) being removed.
The result is expressed as a function of the % absorption relative to the % absorption noted for the control cells (not treated with a compound).

With `COc1ccc(CCN(C)CCCC(C#N)(c2ccc(OC)c(OC)c2)C(C)C)cc1OC` (centres unmarked) [Verapamil, verapamil, reference compound] the “% calcein retention” value ([1]; 30 μg/ml, greater than 100 = inhibits MDR activity) was 139.1%.

H-KDV[Cit]-NH2 [Peptide] was tested, and the “% vitality” value ([2]; peptide concentration 0.000001%) was 94.6%, the “% vitality” value ([2]; peptide concentration 0.00001%) was 71.0% and the “% vitality” value ([2]; peptide concentration 0.00002%) was 66.9%. For the same molecule, the “% vitality” value ([2]; peptide concentration 0.00004%) was 72.0%, the “% vitality” value ([2]; peptide concentration 0.00006%) was 44.7% and the “% vitality” value ([2]; peptide concentration 0.00008%) was 57.3%. The “% vitality” value ([2]; peptide concentration 0.0001%) was 39.8%, the “% vitality” value ([2]; peptide concentration 0.0002%) was 47.6% and the “% vitality” value ([2]; peptide concentration 0.005%) was 49.7%.

B1: KGF: KGF (Sigma), growth factor, positive control (protein, UniProt P21781 32-194, looked up)
Fibroblast growth factor 7: CNDMTPEQMATNVNCSSPERHTRSYDYMEGGDIRVRRLFCRTQWYLRIDKRGKVKGTQEMKNNYNIMEIRTVAVGIVAIKGVESEFYLAMNKEGKLYAKKECNEDCNFKELILENHYNTYASAKWTHNGGEMFVALNQKGIPVRGKKTKKEQKTAHFLPMAIT
B1 was tested, and the “% calcein retention” value ([1]; 25 ng/ml, less than 100 = stimulates MDR activity) was 92.3%.
